Source: patent publication US9714936B2, “Method for evaluating cosmetic” (SHISEIDO COMPANY, LTD., priority 2011, dated 2017)

What was measured:
[1] = system: J-TEC Human Reconstituted Epidermis Model (stratum corneum sheet); assay: Visual examination of stratum corneum sheet transparency after wetting and drying (Example 6); settings: visually examined after wetting 30 minutes and drying 18 hours at 34° C., 60% humidity
Procedure: (§1) The thickness of a J-TEC Human Reconstituted Epidermis Model (stratum corneum sheet) before the experiment was measured with a caliper (Caliper No. 227-201 by Mitsutoyo Corp.) (one location each) (A). The stratum corneum sheet was further wetted for 30 minutes in a 10% glycerin aqueous solution, an aqueous solution of liquid paraffin (10%), glycerin (10%), POE(60) hydrogenated castor oil (10%), carboxyvinyl polymer (product name: CARBOPOL 981, Lubrizol Advanced Materials, Inc.) (0.2%) and KOH (0.1%) (liquid paraffin+glycerin+thickener aqueous solution), and in 100% ethanol, and immediately upon completion of wetting, the thickness of the stratum corneum sheet was measured with a caliper in the same manner (B).
(§2) It was further dried for 18 hours under conditions of 34° C., 60% humidity and the stratum corneum sheet was measured (C). Using theses results, the thickness change rate (%) of the stratum corneum sheet was measured based on the following formula 1: Thickness change rate (%)=(B−A)×100/A−(C−B)×100/C

[2] = system: freeze-dried J-TEC Human Reconstituted Epidermis model (stratum corneum sheet); assay: Transparency and transmittance of freeze-dried stratum corneum sheet after wetting and drying (FIG. 7); settings: wetted 30 minutes, dried 18 hours at 34° C., 60% humidity
Procedure: The freeze-dried stratum corneum sheet was wetted for 30 minutes in a 10% glycerin aqueous solution, in an aqueous solution of liquid paraffin (10%), glycerin (10%), POE(60) hydrogenated castor oil (10%), carboxyvinyl polymer (product name: CARBOPOL 981 by Lubrizol Advanced Materials, Inc.) (0.2%) and KOH (0.1%) (liquid paraffin+glycerin+thickener aqueous solution), and in 100% ethanol, and after removing the liquid, drying was performed for 18 hours in an atmosphere at 34° C., 60% humidity, and the sheet was photographed (FIG. 7). […] Since higher transparency of the stratum corneum can be considered a more excellent skin condition, the state of improvement in skin can be evaluated based on the thickness change in the stratum corneum cells or cell layer from moistening in a liquid until drying.

[3] = system: J-TEC Human Reconstituted Epidermis Model (stratum corneum sheet); assay: Change in stratum corneum sheet thickness on wetting and drying (Example 6)
Procedure: as §1, §2

Compound: CCO [100% Ethanol, ethanol]
- Transparency [1]: Poor
- transparency of freeze-dried stratum corneum sheet moistened and then dried (FIG. 7) [2]: low
- stratum corneum transmittance of freeze-dried sheet moistened and then dried (FIG. 7) ([2]; HR100 spectrophotometer): low
- Thickness change rate (%) ([3]; (B−A)×100/A−(C−B)×100/C, wetted 30 minutes, dried 18 hours at 34° C., 60% humidity, caliper): 3.9%
- change in thickness of stratum corneum sheet when moistened (FIG. 6) ([3]; after wetting with the liquid): no change in thickness
